This is an account of results in patent publication US20200131176A1, “SELECTIVE INHIBITORS OF CLINICALLY IMPORTANT MUTANTS OF THE EGFR TYROSINE KINASE” (CS Pharmatech Limited, priority 2017, published 2020).

SMILES strings stand for the structures.

Holding throughout (format): cell-based, human
One test relates to A431 cells. Put plainly: A431 inhibition assay (cell proliferation, CellTiter-Glo, 72 h). The conditions noted are these: Homo sapiens, A-431, 72 h, cellular proliferation, wild type EGFR, read-out: A431 IC50 (nM) WT.
In the next test the test system is PC-9 cells. The test is described as follows: PC-9 growth inhibition assay (cell proliferation, CellTiter-Glo, 72 h). The conditions noted are these: Homo sapiens, PC-9, 72 h, cellular proliferation, PC9 cells, single mutant EGFR, read-out: PC9 IC50 (nM) SM.
The subject of a further test is H1975 cells. Put plainly: H1975 inhibition assay (cell proliferation, CellTiter-Glo, 72 h). The conditions noted are these: Homo sapiens, NCI-H1975, 72 h, cellular proliferation, double mutant EGFR, read-out: NCI-H1975 IC50 (nM) DM.

Method for PC-9 cells: Then incubate the flasks at 37° C. until the cells detach.
Test compounds were dissolved in DMSO at 30 mM.
The final concentration was 1,000 cells/well. Add medium only as low control.
After 72 hours incubation, remove the plates from incubator and equilibrate at room temperature for 15 minutes. Incubate the CellTiter Glo reagents (Promega, G9243) at 37° C. before the experiment. The buffer was equilibrated to room temperature and used to dissolve the substrate. To determine the cell viability, add 40 μL of CellTiter-Glo reagent into each well to be detected (at 1:1 to culture medium). Then the place the plates at room temperature for 30 min followed by read on EnSpire (PerkinElmer).
For estimation of IC50, the luminescence readout are transformed to % Inhibition by applying the following equation:

For the compound `C=CC(=O)Nc1cc(Nc2nccc(-n3nc(N(C)C)c4cnc(C)cc43)n2)c(OC)cc1N(C)CCN(C)C` [Example 1, N-(5-((4-(3-(Dimethylamino)-6-methyl-1H-pyrazolo[4,3-c]pyridin-1-yl)pyrimidin-2-yl)amino)-2-((2-(dimethylamino)ethyl)(methyl)amino)-4-methoxyphenyl)acrylamide], the IC50 in the test with A431 cells turned out to be 2140 nM; in the test on PC-9 cells, 9.24 nM; with H1975 cells it was 11.4 nM.

On to `C=CC(=O)Nc1cc(Nc2nccc(-c3cccc4c3cnn4C)n2)c(OC)cc1N(C)CCN(C)C` [Example 10, N-(2-((2-(Dimethylamino)ethyl)(methyl)amino)-4-methoxy-5-((4-(1-methyl-1H-indazol-4-yl)pyrimidin-2-yl)amino)phenyl)acrylamide], for which the IC50 was determined as 695 nM in the test on A431 cells, 16.5 nM in the test with PC-9 cells and 12.7 nM with H1975 cells.

For the compound `C=CC(=O)Nc1cc(Nc2nccc(-n3nc(NC)c4ccsc43)n2)c(OC)cc1N(C)CCN(C)C` [Example 23, N-(2-((2-(dimethylamino)ethyl)(methyl)amino)-4-methoxy-5-((4-(3-(methylamino)-1H-thieno[2,3-c]pyrazol-1-yl)pyrimidin-2-yl)amino)phenyl)acrylamide], the IC50 in the test on A431 cells came out at 566 nM; with PC-9 cells it was 3.87 nM; in the test on H1975 cells it was 7.35 nM.

Take `C=CC(=O)Nc1cc(Nc2nccc(-n3nc(NC)c4cc(Cl)sc43)n2)c(OC)cc1N(C)CCN(C)C` [Example 24, N-(5-((4-(5-chloro-3-(methylamino)-1H-thieno[2,3-c]pyrazol-1-yl)pyrimidin-2-yl)amino)-2-((2-(dimethylamino)ethyl)(methyl)amino)-4-methoxyphenyl)acrylamide]: the IC50 was determined as 217 nM in the test on A431 cells, 1.57 nM with PC-9 cells and 2.43 nM with H1975 cells.

`C=CC(=O)Nc1cc(Nc2nccc(-c3cccc4c3ccn4C)n2)c(OC)cc1N(C)CCN(C)C` [Example 25, N-(2-((2-(dimethylamino)ethyl)(methyl)amino)-4-methoxy-5-((4-(1-methyl-1H-indol-4-yl)pyrimidin-2-yl)amino)phenyl)acrylamide]: the figures for the IC50 with A431 cells, in the test on PC-9 cells and in the test on H1975 cells were 1130 nM, 16.2 nM and 12.6 nM, respectively.

For the compound `C=CC(=O)Nc1cc(Nc2nccc(-c3cc(C#N)c4c(c3)c(C)cn4C)n2)c(OC)cc1NCCN(C)C` [Example 28, N-(5-((4-(7-cyano-1,3-dimethyl-1H-indol-5-yl)pyrimidin-2-yl)amino)-2-((2-(dimethylamino)ethyl)amino)-4-methoxyphenyl)acrylamide], the IC50 with A431 cells was found to be 912 nM; with PC-9 cells, 81.4 nM; in the test on H1975 cells, 13.6 nM.

Turning to `C=CC(=O)Nc1cc(Nc2nccc(-c3cc(C#N)c4c(c3)c(C)cn4C)n2)c(OC)cc1N(C)CCNC` [Example 29, N-(5-((4-(7-Cyano-1,3-dimethyl-1H-indol-5-yl)pyrimidin-2-yl)amino)-4-methoxy-2-(methyl(2-(methylamino)ethyl)amino)phenyl)acrylamide], the results for the IC50 in the test with A431 cells, in the test with PC-9 cells and with H1975 cells were 1370 nM, 51.9 nM and 23.6 nM, respectively.
